PubChem BioAssay (NCI)
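These data come from cells grown in 96-well plates and exposed to compound for 48 hours at five concentrations. Here, GI50 denotes the concentration required for 50% inhibition of growth. At the TGI there is no net growth.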

What was measured:
Assay in all cases: NCI anticancer screen, dose series, 48 h
[1] = tested on: SF-268 CNS
[2] = tested on: SNB-75 CNS
[3] = tested on: HOP-92 NSCLC
[4] = tested on: HT29 colon
[5] = tested on: U251 CNS
[6] = tested on: SNB-19 CNS
[7] = tested on: A498 renal
[8] = tested on: OVCAR-5 ovarian
[9] = tested on: HS 578T breast
[10] = tested on: HCC-2998 colon

Compound	GI50 [1] [µM]	TGI [1] [µM]	GI50 [2] [µM]	TGI [2] [µM]	GI50 [3] [µM]	TGI [3] [µM]	GI50 [4] [µM]	TGI [4] [µM]	GI50 [5] [µM]	TGI [5] [µM]	GI50 [6] [µM]	TGI [6] [µM]	GI50 [7] [µM]	TGI [7] [µM]	GI50 [8] [µM]	TGI [8] [µM]	GI50 [9] [µM]	TGI [9] [µM]	GI50 [10] [µM]	TGI [10] [µM]
Brc1cccc(-c2cc(-c3ccc4nccnc4c3)[nH]n2)c1	3.68	> 250	0.674	2.38	4.54	> 250	0.174	> 165	0.938	75.2	1.41	> 250	0.418	1.86	2.64	> 250	1.02	> 250	3.25	> 250
CCN(CC)CCCC(C)Nc1c(-c2ccccc2)cnc2cc(Cl)ccc12 (stereo not given)	10.3	27.3	13.7	45.3	4.65	23.7	2.74	11.5	6.84	20.5	16.6	57.7	2.71	13.8	10.5	27	6.82	24.7	2.34	5.62
CCN(C(=O)CN1CCN(c2cc3c(cc2F)c(=O)c(C(=O)O)cn3CC)CC1)c1nc(-c2ccccc2)cs1	0.43	> 100	0.32	> 100	0.23	0.585	0.301	> 100	0.354	> 100	0.451	> 100	0.244	0.917	0.505	> 100	0.842	> 100	0.402	> 100
Nc1n[nH]c2ccc([C@@H]3Nc4cc5[nH]ncc5cc4[C@H]4C5CCC(C5)[C@@H]34)cc12 (stereo not given in full)	1.71	> 100	0.27	22.9	4.59	> 46.2	0.367	> 44.3	0.43	> 58	0.436	> 100	0.174	0.822	0.565	> 80.9	0.369	> 100	0.789	49.1
O=C1/C(=C/c2cccc(Br)c2)COc2ccc(O)c(O)c21	1.63	4.08	0.933	3.83	1.89	7.21	1.83	3.62	1.1	2.29	1.53	3.04	2.01	4.74	1.93	3.74	2.28	7.53	1.67	3.1
COc1cc(/C=C/[N+](=O)[O-])cc(OC)c1OC	4.39	15.2	2.4	6.11	2.25	6.52	2.2	4.81	2.86	10.9	5.64	18.4	3.31	14.6	2.09	5.11	3.46	28.1	1.82	3.31
